Laboratory results as given in patent US20240252437A1, “Methods For and Products From Encapsulation of Drugs in Nanoparticles in a Microgravity Environment” (Aphios Corporation, priority 2021, published 2024).

Key:
α-secretase = experiment: HEK-293e cell model for APP processing: sAPP-α release by alkaline phosphatase absorbance at 620 nm (Earth); format: cell-based, human; conditions: for release of sAPP-α (increase in absorbance at 620 nm): HEK-293e cells stimulated for 24 h at 10^−8M, n=3
Description: The HEK-293e cell line was optimized for studying α-secretase in vitro.
HEK-293e cells are grown to confluency in T75 dishes in DMEM (Dulbecco's Modified Eagle Medium) and 10% FCS (Fetal Calf Serum) with 2 mM L-glutamine and pen-strepamphotericin. Supplements are needed to maintain plasmid expression: (1) Hygromycin stock solution=100× solution=4 mg/mL, final concentration=40 μg/mL (50 mg/12.5 mL makes 4 mg/mL); (2) Puromycin stock solution=100× solution=30 μg/mL stock, final concentration=0.3 μg/mL. Wait for 24-48 hours. All studies used phenol Red Free DMEM medium with 2% FCS. This must be heated to 65° C. for 30 minutes to inactivate endogenous alkaline phosphatase and cooled prior to making up test solutions.
For test solutions, remove 10% FCS growth medium and replace with 1 mL phenol red free DMEM medium+2% FCS per tube (various drug concentrations and control), and freeze cells in cryotubes. Thaw cryotubes and then: (1) Incubate cells at 37° C. for different time points; (2) Centrifuge tube at 1×g for 5 minutes and refreeze tubes to isolate culture supernatants; (3) Thaw tubes and transfer supernatants to new tube: (4) Make up substrate—Phos Blue (KPL Cat #50-88-00) according to manufacturer's instructions; (5) Transfer 100 µL of each sample and add 100 μL of substrate to 96 well plates; (6) Read immediately—record absorbance at 620 nm; and (7) Reacts quickly so record absorbance every 15 minutes for 60 minutes.
After freezing Bryosomes™, HEK-293e cells and cell culture media at −80 °C and thawing after 1, 3, 6 and 16 hours, the samples were analyzed for α-secretase production (FIG. 3). […] Thus, the concentration of 10^−8 M Bryosomes™ after mixing was targeted for the Space mission.

PKC-ε = target: T1, PKC-ε (Homo sapiens, UniProt Q02156); conditions: in vitro studies (Yi et al., 2012); cited from earlier work
T1 sequence (Q02156 1-737): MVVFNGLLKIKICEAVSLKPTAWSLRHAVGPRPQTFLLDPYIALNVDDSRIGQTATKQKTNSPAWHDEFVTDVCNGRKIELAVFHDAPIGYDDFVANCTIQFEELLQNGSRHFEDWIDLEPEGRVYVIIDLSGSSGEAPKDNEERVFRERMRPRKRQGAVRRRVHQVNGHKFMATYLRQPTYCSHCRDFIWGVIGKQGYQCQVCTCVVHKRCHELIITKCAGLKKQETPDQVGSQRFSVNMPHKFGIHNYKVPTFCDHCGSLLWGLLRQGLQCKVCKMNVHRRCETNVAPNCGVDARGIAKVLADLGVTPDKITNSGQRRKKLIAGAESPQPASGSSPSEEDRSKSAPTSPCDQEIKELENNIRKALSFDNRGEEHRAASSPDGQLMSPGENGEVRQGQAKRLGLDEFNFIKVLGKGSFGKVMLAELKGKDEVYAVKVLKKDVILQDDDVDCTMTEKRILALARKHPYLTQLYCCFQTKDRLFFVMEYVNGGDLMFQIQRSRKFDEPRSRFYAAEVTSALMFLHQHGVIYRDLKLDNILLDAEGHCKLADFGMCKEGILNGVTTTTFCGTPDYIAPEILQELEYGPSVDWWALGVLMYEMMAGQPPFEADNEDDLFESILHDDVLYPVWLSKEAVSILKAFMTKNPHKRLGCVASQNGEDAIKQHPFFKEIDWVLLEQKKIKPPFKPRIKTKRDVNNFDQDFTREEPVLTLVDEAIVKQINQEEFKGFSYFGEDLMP

AD-transgenic mice = conditions: intranasally-active and orally active (Schrott et al., 2015); cited from earlier work

Compound: CCC/C=C/C=C/C(=O)O[C@H]1/C(=C/C(=O)OC)C[C@H]2C[C@H]([C@@H](C)O)OC(=O)C[C@H](O)C[C@@H]3C[C@H](OC(C)=O)C(C)(C)[C@](O)(C[C@@H]4C/C(=C/C(=O)OC)C[C@H](/C=C/C(C)(C)[C@]1(O)O2)O4)O3 [Bryostatin-1]
- release of sAPP-α (increase in absorbance at 620 nm) (α-secretase): significantly increased
- release of sAPP-α (increase in absorbance at 620 nm) (α-secretase; listed as Bryostatin-I): strongly induces
- release of sAPP-α (α-secretase; HEK-293e cells, concentrations lower than 10^−8M): do not affect release
- activation of PKC-ε isoform (PKC-ε): activate
- cognitive performance (AD-transgenic mice): rapidly restores cognitive performance
